Results: US8569324B2, “Potentiator for radiation therapy comprising pyridine derivative as active ingredient” (Taiho Pharmaceutical Co., Ltd., priority 2005, dated 2013)
Where “and” joins values, the source holds several entries; their conditions need not be identical. Equal values may be shown once.

Assays:
[1] = system: human lung cancer strain (LC-11); experiment: Test Example 2: radiotherapy enhancing effect of CNDP on human lung cancer strain LC-11 transplanted into nude mice; type: in vivo, BALB/cA-nu mouse
Method: (a) Preparation of test solution: 3-Cyano-2,6-dihydroxypyridine (CNDP) was suspended in a 0.5% (W/V) hydroxypropylmethylcellulose (HPMC) solution at concentrations of 2.5 and 5.0 mg/mL, and the suspension was stirred with a stirrer at room temperature for about 10 minutes and ultrasonicated for about 5 minutes with ice cooling to obtain a drug solution of 25 or 50 mg/kg/day as CNDP. (b) Method for radiation (X-ray) irradiation: Local irradiation was performed on a human tumor strain transplanted into the right femoral region of the mouse using MBR-1505R Type 2 X-ray Irradiation System of Hitachi Medical Corporation under an irradiation condition (irradiation position) so that exposure per mouse should be 2 Gy or 5 Gy. To prevent systemic irradiation, mice were placed in a storage box made of lead so that only their right leg should be exposed to radiation. (c) Test: The human lung cancer strain (LC-11) subcutaneously transplanted into the back of a BALB/cA-nu mouse and grown beforehand were removed, cut into small fragments of about 2×2 mm^2 with scissors in physiological saline, and subcutaneously transplanted into the right femoral region of 5 to 6-week-old mice of the same strain with a transplantation needle. The mice were bred for at least 1 to 2 weeks and divided into the control group, the radiation alone group, the drug alone group, and the drug plus radiation group, so that the tumor volume and standard deviation (S.D.) in each group (n=6 per group) should be as uniform as possible. Then, drug administration and X-ray irradiation were initiated. The drug treatment group was orally administered with 0.1 mL of the above-described 5 mg/mL CNDP drug solution per body weight 10 g once daily for 14 consecutive days using a sonde for oral administration. The radiation group was irradiated with 2 Gy or 5 Gy of X-ray within about 1 hour after administration of the CNDP drug solution in the above-described manner on day 1, at the start of the test, and on day 8. Tumor-bearing mice in the control group (non-radiation/non-drug treatment group) and the radiation alone group were orally administered with […] solution alone in the same manner for 14 consecutive days.
By using the above-mentioned numerical formula 1, the tumor volume of each mouse in each group was obtained prior to the start of treatment experiment, on days 3, 5, 8, (1 week later) and 11 during the treatment period, and day 15 (2 weeks later) after completion of treatment. A relative tumor volume (RTV) to the tumor volume at the start of the test was obtained for each mouse (FIG. 1).

[2] = system: human lung cancer LC-11 strain; experiment: Comparative Example 1: radiotherapy enhancing effect of cisplatin on human lung cancer LC-11 strain transplanted into nude mice; type: in vivo, BALB/cA-nu mouse
Method: (a) Preparation of test solution I: The cisplatin solution (0.5 mg/mL) available from Bristol-Myers Squibb Company was used as it was. 0.1 mL per mouse body weight 10 g was administered for the dose of cisplatin 5 mg/kg, and […] per mouse body weight 10 g was administered for the dose of 7.5 mg/kg. (b) Method for radiation (X-ray) irradiation: Local irradiation was performed on a human tumor strain transplanted into the right femoral region of the mouse using MBR-1505R Type 2 X-ray Irradiation System of Hitachi Medical Corporation under an irradiation condition (irradiation position) so that exposure per mouse should be 2 Gy or 5 Gy. To prevent systemic irradiation, mice were placed in a storage box made of lead so that only their right leg should be exposed to radiation. (c) Test: The human lung cancer LC-11 strain subcutaneously transplanted into the back of a BALB/cA-nu mouse and grown beforehand were removed, cut into small fragments of about 2×2 mm^2 with scissors in physiological saline, and subcutaneously transplanted into the right femoral region of 5 to 6-week-old mice of the same strain with a transplantation needle. The mice were bred for at least 1 to 2 weeks and divided into the control group, the radiation alone group, the drug alone group, and the drug plus radiation group, so that the tumor volume and standard deviation (S.D.) in each group (n=6 per group) should be as uniform as possible. Then, drug administration and X-ray irradiation were initiated. For the drug treatment group, 0.1 mL per body weight 10 g of a cisplatin solution for the dose of 5 mg/kg or […] per body weight 10 g of this solution for the dose of 7.5 mg/kg was administered into the caudal vein on day 1. The radiation group was irradiated with 2 Gy of X-ray in the above-described manner on day 1, at the start of the test, and on day 8. For tumor-bearing mice in the control group (non-radiation/non-drug treatment group) and the radiation alone group, physiological saline was administered into the caudal vein on day 1. By using the above-mentioned numerical formula 1, the tumor volume of each mouse in each group was obtained prior to the start of treatment experiment, on days 3, 5, 8 (1 week later) and 11 during the treatment period, and days 15 (2 weeks later), 18, 22 (3 weeks later), 25, and 29 (4 weeks later) after completion of treatment. A relative tumor volume (RTV) to the tumor volume at the start of the test was obtained for each mouse. Then, the mean tumor growth inhibition rate (IR; %) in each treatment group based on the control group was obtained by using the above-mentioned numerical formula 2 on days 15, at the end of the treatment period, and 29, at 4 weeks later, and shown in Table 3.

normal skin = experiment: Test Example 3: effect of irradiation on disorders of normal tissues (normal skin), severity by method of Douglas et al.; type: in vivo, BALB/cA-nu mice; conditions: CDHP 50 mg/kg/day oral 7 days + 20 Gy X-ray on days 1 and 3; 6 animals; radiation alone: grades 1.5 or higher in all 6 after day 14
Method: (a) Preparation of test solution: CDHP was suspended in a 0.5% (W/V) HPMC solution at a concentration of 5.0 mg/mL, and the suspension was stirred with a stirrer at room temperature for about 10 minutes and ultrasonicated with ice cooling for about 5 minutes to obtain a drug solution of 50 mg/kg/day as CDHP. (b) Method for X-ray irradiation: Local irradiation was performed on the right femoral region of the mouse using MBR-1505R Type 2 X-ray Irradiation System of Hitachi Medical Corporation under an irradiation condition (irradiation position) so that exposure per mouse should be 20 Gy. To prevent systemic irradiation, mice were placed in a storage box made of lead so that only their right leg should be exposed to radiation. (c) Test: Six to 8-week-old BALB/cA-nu mice were divided into the control group, the radiation alone group, and the drug plus radiation group, each consisting of 6 animals, and drug administration and X-ray irradiation were initiated. […] (d) Determination of severity of skin disorders: From 7 days after the end of the test, severity of skin disorders in the femoral region caused by irradiation was determined by the method of Douglas, et al. (Douglas B G, et al.: The effect of multiple small doses of X-rays on skin reactions in the mice and a basic interpretation. Radiation Res., 66: 401-426, 1976.).

[3] = system: human lung cancer strain (LC-11); experiment: Test Example 1: radiotherapy enhancing effect of CDHP on human lung cancer strain LC-11 transplanted into nude mice; type: in vivo, BALB/cA-nu mouse
Method: (a) Preparation of test solution: 5-Chloro-2,4-dihydroxypyridine (CDHP) was suspended in a 0.5% (W/V) hydroxypropylmethylcellulose (HPMC) solution at concentrations of 0.25 and 2.5 mg/mL, and the suspension was stirred with a stirrer at room temperature for about 10 minutes and ultrasonicated for about 5 minutes with ice cooling to obtain a drug solution of 2.5 or 25 mg/kg/day as CDHP. (b) Method for Radiation (X-ray) irradiation: Local irradiation was performed on a human tumor strain transplanted into the right femoral region of the mouse using MBR-1505R Type 2 X-ray Irradiation System of Hitachi Medical Corporation under an irradiation condition (irradiation position) so that exposure per mouse should be 2 Gy or 5 Gy. To prevent systemic irradiation, mice were placed in a storage box made of lead so that only their right leg should be exposed to radiation. (c) Test: The human lung cancer strain (LC-11) subcutaneously transplanted into the back of a BALB/cA-nu mouse and grown beforehand were removed, cut into small fragments of about 2×2 mm^2 with scissors in physiological saline, and subcutaneously transplanted into the right femoral region of 5 to 6-week-old mice of the same strain with a transplantation needle. The mice were bred for at least 1 to 2 weeks and divided into the control group, the radiation alone group, the drug alone group, and the drug plus radiation group, so that the tumor volume and standard deviation (S.D.) in each group (n=6 per group) should be as uniform as possible. Then, drug administration and X-ray irradiation were initiated. The drug treatment group was orally administered with 0.1 mL each of the above-described CDHP drug solution per body weight 10 g once daily for 14 consecutive days using a sonde for oral administration. The radiation group was irradiated with 2 Gy or 5 Gy of X-ray within about 1 hour after administration of the CDHP drug solution in the above-described manner on day 1, at the start of the test, and on day 8. Tumor-bearing mice in the control group (non-radiation/non-drug treatment group) and the radiation alone group were orally administered with 0.5% HPMC solution alone in the same manner for 14 consecutive days.
By using the following numerical formula 1, the tumor volume of each mouse in each group was obtained prior to the start of treatment experiment, on days 3, 5, 8 (1 week later) and 11 during the treatment period, and days 15 (2 weeks later), 18, 22 (3 weeks later), 25, and 29 (4 weeks later) after completion of the treatment. A relative tumor volume (RTV) to the tumor volume at the start of the test was obtained for each mouse. […] The mean tumor growth inhibition rate (IR; %) in each treatment group based on the control group was obtained by using the following numerical formula 2 on days 15, at the end of the treatment period, and 29 at 4 weeks later and shown in Table 1.

## N#Cc1ccc(O)nc1O [CNDP, 3-cyano-2,6-dihydroxypyridine]
[1]; CNDP 25 mg/kg oral once daily + X-ray 2 Gy on days 1 and 8, Day 11
  Tumor growth inhibition rate (IR) (%) Day 11: 44.7%
[1]; CNDP 25 mg/kg oral once daily + X-ray 2 Gy on days 1 and 8, Day 15
  Tumor growth inhibition rate IR(%) Day 15: 54.6%
[1]; CNDP 50 mg/kg oral once daily 14 days, X-ray 0 Gy, Day 11
  Tumor growth inhibition rate (IR) (%) Day 11: 1.8%
[1]; CNDP 50 mg/kg oral once daily 14 days, X-ray 0 Gy, Day 15
  Tumor growth inhibition rate IR(%) Day 15: 8.2%
[1]; CNDP 50 mg/kg oral once daily + X-ray 2 Gy on days 1 and 8, Day 11
  Tumor growth inhibition rate (IR) (%) Day 11: 44.4%
[1]; CNDP 50 mg/kg oral once daily + X-ray 2 Gy on days 1 and 8, Day 15
  Tumor growth inhibition rate IR(%) Day 15: 60.4%
[1]; CNDP 25 and 50 mg/kg with 2-Gy X-ray irradiation in combination
  enhancement of the antitumor effect of X-ray: significantly increased the antitumor effect of 2-Gy X-ray
[1]; CNDP alone, high dose of 50 mg/kg
  antitumor effect of drug alone: hardly showed any antitumor effect
[1]; mice receiving CNDP and X-ray in combination
  serious adverse drug reactions (body weight loss, skin disorders): no serious adverse drug reactions such as body weight loss and skin disorders were observed

## [NH2][Pt]([NH2])([Cl])[Cl] [CDDP, cisplatin]
[2]; CDDP 5.0 mg/kg caudal vein on day 1 + X-ray 2 Gy on days 1 and 8, Day 15
  IR (%) Day 15: 53.8%
[2]; CDDP 5.0 mg/kg caudal vein on day 1 + X-ray 2 Gy on days 1 and 8, Day 29
  IR (%) Day 29: 46.8%
[2]; CDDP 5.0 mg/kg caudal vein on day 1, no X-ray, Day 15
  IR (%) Day 15: 39.9%
[2]; CDDP 5.0 mg/kg caudal vein on day 1, no X-ray, Day 29
  IR (%) Day 29: 45.6%
[2]; CDDP 5 mg/kg or 7.5 mg/kg and 2-Gy X-ray irradiation
  enhancement of antitumor effects by combination compared with CDDP alone: did not significantly enhance antitumor effects
[2]; CDDP 7.5 mg/kg caudal vein on day 1 + X-ray 2 Gy on days 1 and 8, Day 15
  IR (%) Day 15: 54.6%
[2]; CDDP 7.5 mg/kg caudal vein on day 1 + X-ray 2 Gy on days 1 and 8, Day 29
  IR (%) Day 29: 66.8%
[2]; CDDP 7.5 mg/kg caudal vein on day 1, no X-ray, Day 15
  IR (%) Day 15: 55.8%
[2]; CDDP 7.5 mg/kg caudal vein on day 1, no X-ray, Day 29
  IR (%) Day 29: 60.2%
[2]; series of examinations using human lung cancer LC-11 strain
  radiotherapy enhancing effect: very weak

## Oc1cc(O)c(Cl)cn1 [CDHP, 5-chloro-2,4-dihydroxypyridine]
Normal skin
  severity of skin disorders in the femoral region caused by irradiation: mild disorders (redness, swelling) were observed only in 1 or 2 mice
[3]; CDHP 2.5 mg/kg oral once daily 14 days + X-ray 2 Gy on days 1 and 8, Day 15
  Tumor growth inhibition rate IR(%) Day 15: 41%
[3]; CDHP 2.5 mg/kg oral once daily 14 days + X-ray 2 Gy on days 1 and 8, Day 29
  Tumor growth inhibition rate IR(%) Day 29: 25% and 24.7* %
[3]; CDHP 2.5 mg/kg oral once daily 14 days, X-ray 0 Gy, Day 15
  Tumor growth inhibition rate IR(%) Day 15: 17.2%
[3]; CDHP 2.5 mg/kg oral once daily 14 days, X-ray 0 Gy, Day 29
  Tumor growth inhibition rate IR(%) Day 29: −7.9%
[3]; CDHP 25 mg/kg oral once daily 14 days + X-ray 2 Gy on days 1 and 8, Day 15
  Tumor growth inhibition rate IR(%) Day 15: 57% and 57.2%
[3]; CDHP 25 mg/kg oral once daily 14 days + X-ray 2 Gy on days 1 and 8, Day 29
  Tumor growth inhibition rate IR(%) Day 29: 46% and 46.3** %
[3]; CDHP 25 mg/kg oral once daily 14 days, X-ray 0 Gy, Day 15
  Tumor growth inhibition rate IR(%) Day 15: 9.7%
[3]; CDHP 25 mg/kg oral once daily 14 days, X-ray 0 Gy, Day 29
  Tumor growth inhibition rate IR(%) Day 29: −15.3%
[3]; CDHP 2.5 and 25 mg/kg with 2-Gy X-ray irradiation in combination
  enhancement of the effect of X-ray: significantly enhanced the effect of X-ray
[3]; CDHP alone, both doses 2.5 and 25 mg/kg
  antitumor effect of drug alone: hardly showed any antitumor effect
[3]; mice receiving CDHP and X-ray in combination
  serious adverse drug reactions (body weight loss, skin disorders): no serious adverse drug reactions such as body weight loss and skin disorders were observed
